Assay results from patent publication US7468391B2, “Methods for treating retinoid responsive disorders using selective inhibitors of CYP26A and CYP26B” (Allergan, Inc., priority 2003, dated 2008).

Legend:
CYP26A (P450RAI-1) = molecular target: T1, CYP26A (P450RAI-1) (Homo sapiens, UniProt O43174); assay: Cell-based inhibition of RA metabolism in CYP26A stably transfected HeLa cells; conditions: stably transfected HeLa cells, [3H]-RA, 3 hours at 37° C.; read-out: P450RAI-1 Whole cell IC50
T1 construct: expressed in transfected cells; host or cells: HeLa
T1 sequence (O43174 1-497): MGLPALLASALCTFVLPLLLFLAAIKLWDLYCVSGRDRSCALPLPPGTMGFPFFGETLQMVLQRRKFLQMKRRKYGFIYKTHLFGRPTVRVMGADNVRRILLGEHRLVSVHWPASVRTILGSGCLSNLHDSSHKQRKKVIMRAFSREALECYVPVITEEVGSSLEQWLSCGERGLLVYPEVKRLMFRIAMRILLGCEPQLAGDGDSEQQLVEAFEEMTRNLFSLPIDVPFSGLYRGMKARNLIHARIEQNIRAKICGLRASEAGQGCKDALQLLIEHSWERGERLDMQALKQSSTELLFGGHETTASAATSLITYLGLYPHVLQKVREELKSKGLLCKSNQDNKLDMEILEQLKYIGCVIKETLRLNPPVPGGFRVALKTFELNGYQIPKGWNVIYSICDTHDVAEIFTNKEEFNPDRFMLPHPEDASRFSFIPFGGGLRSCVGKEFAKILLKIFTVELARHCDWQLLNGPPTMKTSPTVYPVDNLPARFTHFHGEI
Procedure: (§1) In brief, CYP26A or CYP26B can be stably transfected into HeLa cells. Exponentially growing cells are harvested by incubating in trypsin. Cells are then washed and plated in a 48-well plate at 5×10^5 cells in 0.2 ml MEM medium containing 10% FBS and 0.05 μCi [^3H]-RA in the presence or absence of increasing concentrations of the test compounds. The compounds are diluted in 100% DMSO and then added in triplicate wells at either 10, 1 or 0.1 μM final concentration. As a positive control for RA metabolism inhibition, cells are also incubated with ketoconazole at 100, 10 and 1 μM. Cells are incubated for 3 hours at 37 degrees C. The retinoids are then extracted using the procedure of Bligh et al., Canadian Journal of Biochemistry 37: 911-917 (1959), modified by using methylenechloride instead of chloroform. This publication by Bligh et al., is specifically incorporated herein by reference. The water soluble radioactivity is quantified using a β scintillation counter, and IC50 values are determined.
(§2) CYP26A and CYP26B stably transfected HeLa cells were maintained in 100 mm tissue culture dishes in MEM medium containing 10% FBS and 100 μg/ml hygromycin.
(§3) Exponentially growing cells were harvested by incubating in trypsin. Cells were then washed with 1×PBS and plated in a 48-well plate at 5×10^5 cells in 0.2 ml MEM medium containing 10% FBS and 0.05 μCi [^3H]-RA in the presence or absence of increasing concentrations of the test compounds. The compounds were diluted in 100% DMSO and then added to triplicate wells at final concentrations of 10, 1 or 0.1 μM. As a positive control for RA metabolism inhibition, cells were also incubated with ketoconazole at 100, 10 and 1 μM. Cells were incubated for 3 hours at 37° C. The retinoids were then extracted using a modified Bligh and Dyer procedure (Bligh and Dyer, supra (1959)), in which methylene-chloride, as opposed to chloroform, was used, and the aqueous soluble radioactivity quantified using a β-scintillation counter. ID50 values represent the concentration of inhibitor required to inhibit RA metabolism by 50 percent and were derived manually from log-transformed data.

CYP26B (P450RAI-2) = molecular target: T2, CYP26B (P450RAI-2) (Homo sapiens, UniProt Q9NR63); assay: Cell-based inhibition of RA metabolism in CYP26B stably transfected HeLa cells; conditions: stably transfected HeLa cells, [3H]-RA, 3 hours at 37° C.; read-out: P450RAI-2 Whole cell IC50
T2 construct: expressed in transfected cells; host or cells: HeLa
T2 sequence (Q9NR63 1-512): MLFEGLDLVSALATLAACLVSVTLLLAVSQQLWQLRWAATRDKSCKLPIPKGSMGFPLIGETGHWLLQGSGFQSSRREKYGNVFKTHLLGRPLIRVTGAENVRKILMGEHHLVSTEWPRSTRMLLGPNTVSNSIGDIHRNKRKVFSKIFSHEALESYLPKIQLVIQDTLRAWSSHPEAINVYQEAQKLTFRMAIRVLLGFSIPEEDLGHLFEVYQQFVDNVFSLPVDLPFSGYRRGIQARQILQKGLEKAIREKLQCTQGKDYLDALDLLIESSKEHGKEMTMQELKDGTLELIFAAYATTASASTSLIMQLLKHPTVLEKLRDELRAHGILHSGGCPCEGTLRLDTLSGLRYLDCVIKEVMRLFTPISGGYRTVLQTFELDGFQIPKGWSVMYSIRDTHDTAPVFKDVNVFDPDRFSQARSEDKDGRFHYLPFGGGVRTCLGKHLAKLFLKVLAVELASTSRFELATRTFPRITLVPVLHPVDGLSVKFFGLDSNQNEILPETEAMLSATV
Procedure: as §1, §2, §3

RAR β [1] = molecular target: T3, RAR β (Homo sapiens, UniProt P10826); assay: RAR β EC50/(efficacy); assay type: cell-based; conditions: value in brackets of cell EC50/(EFFICACY)/Kd
T3 sequence (P10826 1-455): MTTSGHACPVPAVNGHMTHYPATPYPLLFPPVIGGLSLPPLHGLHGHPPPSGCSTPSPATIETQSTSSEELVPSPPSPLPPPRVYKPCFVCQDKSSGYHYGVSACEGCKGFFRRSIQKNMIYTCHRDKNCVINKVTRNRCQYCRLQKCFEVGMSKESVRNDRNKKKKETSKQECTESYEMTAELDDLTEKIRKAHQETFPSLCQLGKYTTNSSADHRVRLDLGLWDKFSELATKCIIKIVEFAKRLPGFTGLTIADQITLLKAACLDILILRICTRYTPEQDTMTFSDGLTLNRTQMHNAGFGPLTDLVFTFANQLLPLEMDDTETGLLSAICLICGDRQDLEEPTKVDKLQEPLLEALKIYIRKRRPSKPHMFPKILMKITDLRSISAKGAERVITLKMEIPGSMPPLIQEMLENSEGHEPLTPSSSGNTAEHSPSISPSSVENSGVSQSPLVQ

RAR α = molecular target: T4, RAR α (Homo sapiens, UniProt P10276); assay: RAR α Kd; assay type: binding; conditions: last item of cell EC50/(EFFICACY)/Kd
T4 sequence (P10276 1-462): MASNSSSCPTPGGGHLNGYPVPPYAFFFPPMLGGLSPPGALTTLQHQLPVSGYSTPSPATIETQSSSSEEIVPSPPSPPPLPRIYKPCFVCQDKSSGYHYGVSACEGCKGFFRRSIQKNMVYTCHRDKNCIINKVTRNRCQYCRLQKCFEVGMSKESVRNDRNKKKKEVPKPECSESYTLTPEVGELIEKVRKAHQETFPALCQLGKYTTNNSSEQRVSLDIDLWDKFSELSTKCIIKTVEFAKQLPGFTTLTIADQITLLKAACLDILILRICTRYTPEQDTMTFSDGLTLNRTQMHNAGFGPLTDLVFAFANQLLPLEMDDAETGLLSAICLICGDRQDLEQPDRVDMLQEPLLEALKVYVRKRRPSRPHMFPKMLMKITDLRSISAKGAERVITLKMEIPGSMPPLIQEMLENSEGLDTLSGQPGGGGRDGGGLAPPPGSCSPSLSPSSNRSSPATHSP

RAR β [2] = molecular target: T3, RAR β; assay: RAR β Kd; assay type: binding; conditions: last item of cell EC50/(EFFICACY)/Kd
RAR γ = molecular target: T5, RAR γ (Homo sapiens, UniProt P13631); assay: RAR γ Kd; assay type: binding; conditions: last item of cell EC50/(EFFICACY)/Kd
T5 sequence (P13631 1-454): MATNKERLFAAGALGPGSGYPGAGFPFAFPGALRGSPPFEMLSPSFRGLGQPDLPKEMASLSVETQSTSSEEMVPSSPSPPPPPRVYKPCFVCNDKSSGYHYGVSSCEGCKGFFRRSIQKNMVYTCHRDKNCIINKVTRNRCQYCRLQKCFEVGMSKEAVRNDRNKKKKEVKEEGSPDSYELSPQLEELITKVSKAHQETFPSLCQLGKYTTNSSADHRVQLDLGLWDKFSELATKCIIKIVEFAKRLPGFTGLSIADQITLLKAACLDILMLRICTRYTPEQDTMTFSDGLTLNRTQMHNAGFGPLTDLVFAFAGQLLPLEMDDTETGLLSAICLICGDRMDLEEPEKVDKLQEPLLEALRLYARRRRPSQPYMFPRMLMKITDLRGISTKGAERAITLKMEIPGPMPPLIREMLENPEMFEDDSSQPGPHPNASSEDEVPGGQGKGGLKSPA

SMILES	IC50 (CYP26A (P450RAI-1)) [µM]	IC50 (CYP26B (P450RAI-2)) [µM]	RAR β (EFFICACY) (RAR β [1])	Kd (RAR α) [µM]	Kd (RAR β [2]) [µM]	Kd (RAR γ) [µM]
CC(C(=O)O)c1ccc(C#Cc2cc(CN(C)C3CC3)c3c(c2)C(C)(C)CC(C)(C)O3)cc1 (stereo not shown) [Compound 8, 2-(4-{8-[(Cyclopropyl-methyl-amino)-methyl]-2,2,4,4-tetramethyl-chroman-6-ylethynyl}-phenyl)-propionic acid]	0.05	> 10	15	0.957	4.8	> 10
CC1(C)CC(C)(C)c2cc(C#Cc3ccc(CC(=O)O)c(F)c3)cc(O)c2O1 [Compound 10, [2-Fluoro-4-(8-hydroxy-2,2,4,4-tetramethyl-chroman-6-ylethynyl)-phenyl]-acetic acid]	0.07	0.7	15	> 10	> 10	> 10
C=Cc1cc(C#Cc2ccc(CC(=O)O)cc2)cc2c1C(=O)CCC2(C)C [Compound 22, [4-(8,8-Dimethyl-5-oxo-4-vinyl-5,6,7,8-tetrahydro-naphthalen-2-ylethynyl)-phenyl]-acetic acid]	0.007	0.2	15	> 10	> 10	> 10
CCOC(=O)c1cc(C#Cc2ccc(CC(=O)O)cc2)cc2c1C(N(C)C1CC1)CCC2(C)C (stereo not shown) [Compound 24, 3-(4-Carboxymethyl-phenylethynyl)-8-(cyclopropyl-methyl-amino)-5,5-dimethyl-5,6,7,8-tetrahydro-naphthalene-1-carboxylic acid ethyl ester]	0.035	5	30	8.57	7.19	7.75
COc1cc(C#Cc2ccc(CC(=O)O)c(F)c2)cc2c1C(N(C)C1CC1)CCC2(C)C (stereo not shown) [Compound 26, {4-[5-(Cyclopropyl-methyl-amino)-4-methoxy-8,8-dimethyl-5,6,7,8-tetrahydro-naphthalen-2-ylethynyl]-2-fluoro-phenyl}-acetic acid]	0.018	5	25	> 10	> 10	1.12
C#Cc1cc(C#Cc2ccc(CC(=O)OCOC(C)=O)c(F)c2)cc(C(=O)OC(C)C)c1 [Compound 62, 3-(4-Acetoxymethoxycarbonylmethyl-3-fluoro-phenylethynyl)-5-ethynyl-benzoic acid isopropyl ester]	0.4	6.1		> 10	> 10	> 10

The remaining lines, values ahead:

IC50 (CYP26A (P450RAI-1)) [µM]	IC50 (CYP26B (P450RAI-2)) [µM]	RAR β (EFFICACY) (RAR β [1])	Kd (RAR α) [µM]	Kd (RAR β [2]) [µM]	Kd (RAR γ) [µM]	SMILES
0.5	5		> 10	3.91	> 10	Cc1cc2c(cc1C#Cc1ccc(C(C)(C)C(=O)O)cc1)C(C)(C)CCC2N(C)C1CC1 (stereo not shown) [Compound 53, 2-{4-[5-(Cyclopropyl-methyl-amino)-3,8,8-trimethyl-5,6,7,8-tetrahydro-naphthalen-2-ylethynyl]-phenyl}-2-methyl-propionic acid]
0.2	> 10		1.81	5.09	> 10	CCc1cc(C#Cc2ccc(C(C)(C)C(=O)O)cc2)cc2c1C(N(C)C1CC1)CCC2(C)C (stereo not shown) [Compound 54, 2-{4-[5-(Cyclopropyl-methyl-amino)-4-ethyl-8,8-dimethyl-5,6,7,8-tetrahydro-naphthalen-2-ylethynyl]-phenyl}-2-methyl-propionic acid]
0.5		30	> 10	> 10	> 10	CCOC(=O)C1=CCC(C)(C)c2cc(C#Cc3ccc(CC(=O)O)c(F)c3)c(C)cc21 [Compound 56, 6-(4-Carboxymethyl-3-fluoro-phenylethynyl)-4,4,7-trimethyl-3,4-dihydro-naphthalene-1-carboxylic acid ethyl ester]
0.22	8.1		> 10	> 10	> 10	C#Cc1cc(C#Cc2ccc(CC(=O)O)c(F)c2)cc(C(=O)OC(C)C)c1 [Compound 61, 3-(4-Carboxymethyl-3-fluoro-phenylethynyl)-5-ethynyl-benzoic acid isopropyl ester]
